Read-outs that look alike come from different tables or passages of the source.
Key:
calf thymus DNA (ctDNA) = test: Competitive binding to {DNA-EB} adduct by fluorescence; details: ctDNA 1.5 μM, EB 0.75 μM, 10 mM Tris-HCl pH 7.4, DMSO ≤5% v/v
Procedure: Experiments for competitive binding to calf thymus DNA (ctDNA, SIGMA, Type I, No. D-1501, St. […] Millipore water was used for the preparation of solutions of the complexes for the studies and for buffer solution. Fluorescence measurements were performed as titration using a fixed concentration of ctDNA and EB while gradually increasing the concentration of the [V^VO(IN-2H)(L2-H)] complex, L2 and IN free ligands. ctDNA stock solutions were prepared by hydrating ctDNA in Tris-HCl buffer (1 mg mL^−1, ~2 mM nuc^−1). This solution was allowed to stand at 4 °C. The concentration of the stock solution was determined by UV spectrophotometry using the molar absorption coefficient ε (260 nm) = 6600 M^−1cm^−1nuc^−1 [76]. An EB 0.5 mM solution was prepared in Tris-HCl buffer. Due to the low solubility of the complexes in aqueous media, DMSO was used to prepare concentrated stock solutions, followed by appropriate dilution. […] Fluorescence spectra were recorded from 540 nm to 680 nm at an excitation wavelength of 510 nm on a Shimadzu RF 5301 spectrofluorimeter (Kyoto, Japan) and in a 10.0 × 10.0 mm^2 quartz cuvette. Samples with only compounds and ctDNA (without EB) were used as blanks and subtracted from the sample spectra. […] KSV were determined from the plot of F0/F versus [Q].

VERO cells [1] = tested on: VERO cells; set-up: method as in doi:10.1039/C9NJ02589H; details: ref [42], read-out: IC50 VERO ± SD; cited from earlier work
[2] = tested on: T. cruzi epimastigotes (CL Brener strain); test: In vitro activity against epimastigotes of T. cruzi (alamar Blue); assay type: cell-based, Trypanosoma cruzi; details: for IC50: Trypanosoma cruzi, 24 h, read-out: IC50 Epimastigotes T. cruzi ± SD
[3] = tested on: T. cruzi trypomastigotes (CL Brener strain); test: In vitro activity against cell-derived trypomastigotes of T. cruzi (alamar Blue); assay type: cell-based, Trypanosoma cruzi; details: for IC50: Trypanosoma cruzi, 24 h, read-out: IC50 Trypomastigotes T. cruzi ± SD
[4] = tested on: Caenorhabditis elegans Bristol strain N2; test: In vivo toxicity on C. elegans (motility, viability, development); details: C. elegans L4, 2 µM, positive control
Procedure: The wild-type Caenorhabditis elegans (C. elegans) Bristol strain N2 and Escherichia coli (E. coli) OP50 strain were obtained from the Caenorhabditis Genomics Center (Minneapolis, MN, USA). Worms were maintained under standard conditions at 20 °C on Nematode Growth Media (NGM) agar plates seeded with E. coli OP50 as a source of food as previously described. The method used to assess toxicity is based on worm motility according to previously described. Briefly, the locomotor activity recording system, WMicrotracker^TM ONE (PhylumTech, Santa Fe, Argentina) detects infrared microbeam interruptions. Synchronized L4 C. elegans worms were removed from culture plates and washed three times with M9 buffer (3 g KH2PO4; 6 g Na2HPO4; 5 g NaCl; 1 mL 1 M MgSO4 per liter) by centrifugation at 1000 g. Worms in M9 1% DMSO were plated in 96-well flat microtiter plates (Deltalab, Barcelona, Spain). Approximately 70 worms per well were seeded in 60 µL M9 buffer containing 1% DMSO and their basal movement was measured for 30 min to normalize the movement activity for each well at the beginning of the assay. Then, compound [V^VO(IN-2H)(L2-H)] dissolved in M9 buffer 1% DMSO was added to a final concentration range of 6.5–100 µM in a final volume of 100 µL per well. […] The motility using WMicrotracker^TM ONE was measured for 18 h. […]

VERO cells [5] = test: Cytotoxicity on VERO cells (MTT assay); assay type: cell-based, African green monkeys; details: Primates, 24 h, read-out: IC50 VERO ± SD
Procedure: VERO cells. VERO cells (ATCC CCL81, Manassas, VA, USA) were used as mammalian cell model for testing unspecific cytotoxicity. This cell lineage was isolated from kidney epithelial cells from African green monkeys and is widely used for phenotypic screening of drugs as it is regarded as a normal cell derived from epithelial tissue.
Cells were cultured in RPMI medium (Gibco, Grand Island, NY, USA) supplemented with 10% heat inactivated fetal bovine serum, penicillin (100 units/mL) and streptomycin (100 µg/mL) at 37 °C in a humidified 5% CO2 incubator. For maintenance, confluent cells were washed with PBS, incubated for 3 min with trypsin-EDTA (Gibco), diluted and re-plated.
The compounds were initially dissolved in DMSO (stock concentration). […]
For the cytotoxicity assay, 10,000 cells per well were seeded in a 96-well plate in RPMI medium and were incubated at 37 °C in a 5% CO2 atmosphere. […] Cell viability was assessed using MTT (3-(4, 5-dimethylthiazolyl-2)-2, 5-diphenyltetrazolium bromide) assay, where MTT is reduced by metabolically active cells to generate reducing equivalents such as NADH and NADPH, resulting in the formation of an intracellular purple formazan which can be solubilized by the addition of DMSO. […] Plates were kept for 15 min with agitation and absorbance was measured at 570 nm in a Thermo Scientific Varioskan® Flash Multimode instrument (Waltham, MA, USA). […]

Compound	IC50 (VERO cells [1]) [µM]	IC50 ([2]; CL Brener strain) [µM]	IC50 ([3]; CL Brener strain, cell-derived) [µM]	also measured
Oc1c(I)cc(Cl)c2cccnc12 [L2, 5-chloro-7-iodo-8-hydroxyquinoline]	64.7 ± 9.1	2.76 ± 0.52	0.4 ± 0.08	log (KSV), Stern–Volmer constant for competitive binding to {DNA-EB} adduct (calf thymus DNA (ctDNA)): 4.68
Oc1c(Cl)cc(Cl)c2cccnc12 [L1, 5,7-dichloro-8-hydroxyquinolne]	66.5 ± 13.1	7.17 ± 1.07	2.25 ± 0.95	
Oc1cccc2cccnc12 [L0]	10.1 ± 3.9			IC50 [2]: 9.42 ± 2.23 µM; IC50 [3]: 0.47 ± 0.07 µM
ivermectin				effect on worm motility [4]: reduced motility to zero
CC1CS(=O)(=O)CCN1/N=C/c1ccc([N+](=O)[O-])o1 (centres unmarked) [Nifurtimox]	998 ± 90.6	3.68 ± 0.71	20.1 ± 2.86	
O=C(N/N=C/c1c(O)ccc2ccccc12)c1ccncc1 [IN]		> 20	> 20	log (KSV), Stern–Volmer constant for competitive binding to {DNA-EB} adduct (calf thymus DNA (ctDNA)): 4.29; activity on epimastigotes (in words) [2]: negligible activity; IC50 (VERO cells [5]): 22.6 ± 3.7 µM; activity on trypomastigotes (in words) [3]: negligible activity
Oc1c(I)cc(I)c2cccnc12 [L3]	75.5 ± 16.3	2.17 ± 0.35	1.1 ± 0.88	
O=[N+]([O-])c1ccc(O)c2ncccc12 [L4]	12.5 ± 4.5	2.58 ± 0.56	1.01 ± 0.73	
